Literature values in publication PMC6311893, “Computational prediction of plasma protein binding of cyclic peptides from small molecule experimental data using sparse modeling techniques” (BMC Bioinformatics, 2018).
Read-outs that look alike come from different tables or passages of the source.

Tested on: plasma protein
Conditions: cited from earlier work
[1] = fraction bound to plasma protein, small molecule dataset, sheet 1-SM, Set Dtr, ref Ingle et al.
[2] = fraction bound to plasma protein, small molecule dataset, sheet 1-SM, ref Ingle et al.
[3] = fraction bound to plasma protein, small molecule dataset, sheet 1-SM (Set Dte = test, Dtr = training), ref Ingle et al.

In the case of `CC[C@H]1OC(=O)[C@H](C)[C@@H](O[C@H]2C[C@@](C)(OC)[C@@H](O)[C@H](C)O2)[C@H](C)[C@@H](O[C@@H]2O[C@H](C)C[C@H](N(C)C)[C@H]2O)[C@](C)(O)C[C@@H](C)CN(C)[C@H](C)[C@@H](O)[C@]1(C)O` [Azithromycin], the “PPB (fb)” value [1] is listed as 0.23.

For `CO[C@H]1C[C@@H]2CC[C@@H](C)[C@@](O)(O2)C(=O)C(=O)N2CCCC[C@H]2C(=O)O[C@H]([C@H](C)C[C@@H]2CC[C@@H](OCCO)[C@H](OC)C2)CC(=O)[C@H](C)/C=C(\C)[C@@H](O)[C@@H](OC)C(=O)[C@H](C)C[C@H](C)/C=C/C=C/C=C/1C` [everolimus], the “PPB (fb)” value [2] is given as 0.74.

For `CC1(C)S[C@@H]2[C@H](NC(=O)[C@H](N)c3ccc(O)cc3)C(=O)N2[C@H]1C(=O)O` [Amoxicillin], the “PPB (fb)” value [1] is given as 0.17.

For `C[C@@H]1C[C@H]2[C@@H]3CCC4=CC(=O)C=C[C@]4(C)[C@@]3(F)[C@@H](O)C[C@]2(C)[C@@]1(O)C(=O)CO` [Dexamethasone], the “PPB (fb)” value [1] is given as 0.68.

In the case of `COc1ccc(CCN2CCC(Nc3nc4ccccc4n3Cc3ccc(F)cc3)CC2)cc1` [astemizole], the “PPB (fb)” value [3] is given as 0.97.

In the case of `COc1ccc(O)cc1C(C)(C)C` [2-butyl-4-hydroxyanisole], the “PPB (fb)” value [3] is given as 0.85.

For `CCOC(=O)[C@@H]1C2CCC(C[C@@H]1OC(=O)c1ccccc1)N2C` (stereo partly drawn) [Cocaethylene], the “PPB (fb)” value (plasma) is given as 0.36.

For `CN1C[C@H](C(=O)N[C@]2(C)O[C@@]3(O)[C@@H]4CCCN4C(=O)[C@H](Cc4ccccc4)N3C2=O)C=C2c3cccc4[nH]cc(c34)C[C@H]21` [Ergotamine], the “PPB (fb)” value (plasma) is listed as 0.96.

In the case of `COC(=O)[C@H]1[C@@H](OC(=O)c2ccccc2)C[C@@H]2CC[C@H]1N2C` [Cocaine], the “PPB (fb)” value (plasma) is listed as 0.89.

For `O=C(O)c1cn(-c2ccc(C(F)(F)F)cc2)c2cc(N3CCNCC3)c(F)cc2c1=O` [3c(p-CF3)], the “PPB (fb)” value [3] is given as 0.42.

In the case of `CC(=O)O[C@H]1C[C@@H]2CC[C@@H]3[C@H](CC[C@@]4(C)[C@H]3C[C@H](N3CC[N+](C)(C)CC3)[C@@H]4OC(C)=O)[C@@]2(C)C[C@@H]1N1CC[N+](C)(C)CC1` [Pipecuronium], the “PPB (fb)” value [3] is given as 0.02.

For `CN(C)CCCN1c2ccccc2CCc2ccccc21` [Imipramine], the “PPB (fb)” value [1] is listed as 0.9.

For `Cc1cccc([C@H](C)c2cnc[nH]2)c1C` [Dexmedetomidine], the “PPB (fb)” value [1] is given as 0.94.

For `CNCCC(Oc1ccc(C(F)(F)F)cc1)c1ccccc1` (stereo not drawn) [fluoxetine], the “PPB (fb)” value [2] is listed as 0.95.

For `COc1cc(CC2c3c(cc(OC)c(OC)c3OC)CC[N+]2(C)CCCOC(=O)CCC(=O)OCCC[N+]2(C)CCc3cc(OC)c(OC)c(OC)c3C2Cc2cc(OC)c(OC)c(OC)c2)cc(OC)c1OC` (stereo not drawn) [Doxacurium], the “PPB (fb)” value (plasma) is listed as 0.39.

In the case of `CC(Cc1ccc(C(C)C(=O)NS(C)(=O)=O)cc1)C(=O)O` (stereo not drawn) [JMC_10], the “PPB (fb)” value [2] is given as 0.7.

For `CCOCC(=O)NC1C(=O)N2C1SC(C)(C)C2C(=O)O` (stereo not drawn) [penicillin6], the “PPB (fb)” value [2] is given as 0.28.

For `CN1CC[C@H](c2c(O)cc(O)c3c(=O)cc(-c4ccccc4Cl)oc23)[C@H](O)C1` [Flavopiridol], the “PPB (fb)” value [1] is listed as 0.94.

In the case of `C#C[C@]1(O)CC[C@H]2[C@@H]3CCC4=CCCC[C@@H]4[C@H]3CC[C@@]21C` [lynestrenol], the “PPB (fb)” value [2] is listed as 0.96.

In the case of `CC(=O)Oc1ccccc1C(=O)O` [Aspirin], the “PPB (fb)” value [1] is given as 0.43.

In the case of `CC1(C)SC2C(NC(=O)COc3ccccc3F)C(=O)N2C1C(=O)O` (stereo not drawn) [penicillin52], the “PPB (fb)” value [2] is listed as 0.91.

In the case of `CCNC(=O)[C@@H]1CCCN1C(=O)[C@H](CCCNC(=N)N)NC(=O)[C@H](CC(C)C)NC(=O)[C@@H](CC(C)C)NC(=O)[C@H](Cc1ccc(O)cc1)NC(=O)[C@H](CO)NC(=O)[C@H](Cc1c[nH]c2ccccc12)NC(=O)[C@H](Cc1c[nH]cn1)NC(=O)[C@@H]1CCC(=O)N1` [Leuprolide], the “PPB (fb)” value (human, plasma) is given as 0.46.

In the case of `CSc1ccc(/C=C2/C(C)=C(CC(=O)O)c3cc(F)ccc32)cc1` [Sulindac sulfide], the “PPB (fb)” value [2] is given as 0.94.

In the case of `OC[C@H]1OC(O)[C@H](O)[C@@H](O)[C@@H]1O` (stereo partly drawn) [dextrose], the “PPB (fb)” value [3] is listed as 0.3.

In the case of `CCC1=C(C)CN(C(=O)NCCc2ccc(S(=O)(=O)NC(=O)N[C@H]3CC[C@H](C)CC3)cc2)C1=O` [Glimepiride], the “PPB (fb)” value [1] is listed as 0.99.

In the case of `CCOc1ccccc1OCCN[C@H](C)Cc1ccc(OC)c(S(N)(=O)=O)c1` [Tamsulosin], the “PPB (fb)” value [2] is given as 0.97.

In the case of `NC(C(=O)NC1C(=O)N2C(C(=O)O)=C(Cl)CCC12)c1ccccc1` (stereo not drawn) [loracarbef], the “PPB (fb)” value [3] is listed as 0.25.

For `CCC[C@@H]1C[C@@H](C(=O)N[C@@H]([C@H]2O[C@H](SC)[C@H](O)[C@@H](O)[C@H]2O)[C@@H](C)O)N(C)C1` [Lincomycin], the “PPB (fb)” value [1] is given as 0.76.

In the case of `COc1ccc(Cc2nccc3cc(OC)c(OC)cc23)cc1OC` [Papaverine], the “PPB (fb)” value (plasma) is given as 0.9.

In the case of `CN(C)C/C=C(/c1ccc(Br)cc1)c1cccnc1` [zimeldine], the “PPB (fb)” value [3] is given as 0.9.

For `COc1c2occc2cc2ccc(=O)oc12` [methoxsalen], the “PPB (fb)” value [2] is listed as 0.83.

For `C=C(CC(=O)c1ccc(-c2ccccc2Cl)cc1)C(=O)O` [Itanoxone], the “PPB (fb)” value [2] is listed as 0.98.

For `C[n+]1ccccc1/C=N/O` [pralidoxime chloride], the “PPB (fb)” value [2] is listed as 0.05.

For `COC(=O)[C@H](c1ccccc1Cl)N1CCc2sccc2C1` [clopidogrel], the “PPB (fb)” value [3] is given as 0.98.

For `O=C(O)Cc1ccccc1Nc1c(Cl)cccc1Cl` [diclofenac acid], the “PPB (fb)” value [3] is listed as 0.99.

For polythiazide, the “PPB (fb)” value (plasma) is listed as 0.85.

For `CC(C)(C)NCC(O)c1ccc(O)c(CO)c1` (stereo not drawn) [Albuterol (salbutamol)], the “PPB (fb)” value [1] is listed as 0.09.

For `Cc1ccnc2c1NC(=O)c1cccnc1N2C1CC1` [Nevirapine], the “PPB (fb)” value [1] is given as 0.64.

For `CC(Oc1ccccc1)C(=O)N[C@@H]1C(=O)N2[C@@H]1SC(C)(C)[C@@H]2C(=O)O` (stereo partly drawn) [Phenethicillin], the “PPB (fb)” value [1] is listed as 0.75.

In the case of `CC1(C)SC2C(NC=O)C(=O)N2C1C(=O)O` (stereo not drawn) [penicillin1], the “PPB (fb)” value [3] is given as 0.18.

For `CCCN1C[C@H](CSC)C[C@@H]2c3cccc4[nH]cc(c34)C[C@H]21` [pergolide], the “PPB (fb)” value [2] is listed as 0.9.

In the case of `CC(C)NCC(O)COc1ccc(COCCOC(C)C)cc1` (stereo not drawn) [Bisoprolol], the “PPB (fb)” value [3] is listed as 0.32.

In the case of `Cc1nnc2n1-c1ccc(Cl)cc1C(c1ccccc1Cl)=NC2` [Triazolam], the “PPB (fb)” value (plasma) is given as 0.89.

In the case of `O=C(c1ccc(OCCN2CCCCC2)cc1)c1c(-c2ccc(O)cc2)sc2cc(O)ccc12` [raloxifene], the “PPB (fb)” value [2] is listed as 0.97.

For `CC[C@H]1OC(=O)[C@H](C)C(=O)[C@H](C)[C@@H](O[C@@H]2O[C@H](C)C[C@H](N(C)C)[C@H]2O)[C@](C)(OC)C[C@@H](C)C(=O)[C@H](C)[C@H]2N(CCCCn3cnc(-c4cccnc4)c3)C(=O)O[C@]12C` [Telithromycin], the “PPB (fb)” value [2] is listed as 0.59.

In the case of `CC1(C)SC2C(NC(=O)C(Cl)c3ccccc3)C(=O)N2C1C(=O)O` (stereo not drawn) [penicillin22], the “PPB (fb)” value [2] is given as 0.78.

In the case of `Oc1ncnc2[nH]ncc12` [Allopurinol], the “PPB (fb)” value [1] is listed as 0.02.

In the case of `O=C(O)[C@@H]1C[C@@H](C2CCCCC2)CN1C(=O)CP(=O)(O)CCCCc1ccccc1` [Fosinoprilat], the “PPB (fb)” value [3] is given as 0.99.
